Reference: publication PMC11233931, “Remodeling tumor‐associated macrophage for anti‐cancer effects by rational design of irreversible inhibition of mitogen‐activated protein kinase‐activated protein kinase 2” (MedComm, 2024)

Legend:
[1] = system: p-Hsp27 (Ser82) and p-MK2 (T334) in THP-1 derived macrophages; experiment: Western blot of MK2 signaling in LPS-stimulated THP-1 derived macrophages; assay type: cell-based, human; settings: 1 h preincubation, LPS 100 ng/mL 30 min
Experimental: FIGURE 4 Targeting cellular MK2 signaling with irreversible inhibition by compound 11. (A and B) RT‐PCR analysis of IL‐1β, TNF‐α, and IL‐6 expression in Lipopolysaccharides (LPS)‐stimulated THP‐1 (A) and RAW264.7 (B) Cells, with pre‐treatment of compound 11 for 3 h followed by LPS (3 h) stimulation. (C) The inhibitory effects of compound 11 on TNF‐α and IL‐6 production in LPS‐stimulated RAW264.7 macrophages for 24 h, measured by ELISA. (D and E) Compound 11, alongside CC‐99677 and PF‐3644022, suppressed MK2 pathway activation, validated through western blot analysis post‐LPS stimulation. Cells were preincubated with the specified compounds for 1 h prior to LPS stimulation (100 ng/mL, 30 min). (F) Distinguishes the mode of action between compound 11 and CC‐99677. The complex structure of a small molecule and MK2 (3R2Y) with the same parent nucleus as compound 11 is shown in cyans, and the complex structure of a small molecule and MK2 (3FYJ) with the same parent nucleus as CC‐99677 is shown in orange. (G–I) The effect of indicated inhibitor on Hsp27 phosphorylation following inhibitor washout. Cells were pretreated with indicated compounds for 1 h and then washed to remove free compound and incubated for a further indicated time before activation with LPS. In (A–C), LPS (100 ng/mL) served as the stimulation control, while untreated cells were the baseline control. The data represent as mean ± SD from triplicates, with statistical analysis conducted via one‐way analysis of variance (ANOVA) (^## p < 0.01, ^### p < 0.001 vs. stimulation control; ^***p < 0.001 vs. baseline control).
Next, the efficacy of compound 11 in cellular MK2 signaling inhibition was evaluated by examining both p‐MK2 and p‐Hsp27 at Ser82 levels, the latter being a direct downstream substrate of p‐MK2. […] We try to explore this interesting phenomenon by superimposing the complex crystal structure (3FYJ) that harboring the same skeleton as CC‐99677 (Figure 4F). […] In that way, CC‐99677 binding to MK2 kinase after pre‐incubation with cells and after LPS stimulation may cause the difference in the spatial conformation of MK2 kinase domain, which may make p38 cannot properly bind to MK2, resulting in a decrease in the phosphorylation of MK2.
After the treatment outlined in the figure legends, cells were lysed using 1× sodium dodecyl sulfate (SDS) solution. The lysates were then subjected to SDS‐polyacrylamide gel electrophoresis for separation, followed by transferring onto nitrocellulose membranes. […] Protein bands were detected using an enhanced chemiluminescence detection reagent (Thermo Fisher Scientific).

[2] = system: TNF-α, IL-6 and IL-1β mRNA in RAW264.7 macrophage cell line; experiment: RT-PCR of cytokine mRNA in LPS-stimulated RAW264.7 macrophages; assay type: cell-based, mouse; settings: 3 h pre-treatment, LPS 100 ng/mL 3 h
Source text: MK2 is recognized for inducing the production of pathological cytokines that fuel inflammation, including IL‐6, TNF‐α, and IL‐1β. These cytokines are the classic downstream target gene of MK2 and are identified as significant contributors to the risk of inflammation‐driven cancer,[34], [35], [36] such as colorectal cancer and hepatocellular carcinoma. Therefore, we assessed the transcriptional levels of these typical downstream cytokines in human monocytic THP‐1 cell‐line‐derived macrophage and the mouse RAW264.7 macrophage cell line under the influence of compound 11. […] Taken together, our findings corroborate that compound 11 effectively impedes the transcription and production of these key MK2 downstream pro‐inflammatory cytokines.
FIGURE 4 Targeting cellular MK2 signaling with irreversible inhibition by compound 11. […] (C) The inhibitory effects of compound 11 on TNF‐α and IL‐6 production in LPS‐stimulated RAW264.7 macrophages for 24 h, measured by ELISA. […]
Total RNA was extracted from cultured cells using the EZ‐press RNA Purification Kit (EZBioscience). Complementary DNA was synthesized using the ABScript III RT Master Mix for qPCR with gDNA remover (ABclonal Technology) and was quantified with primers listed in Table S5. The relative mRNA expression levels were quantified through qPCR using the SYBR green gene expression assay (ABclonal Technology).

`C=CC(=O)Nc1cc(-c2cc(-c3cc4c([nH]3)CCNC4=O)ccn2)ccc1OC(F)(F)F` [compound 11] was tested, and the “effect on MK2 phosphorylation at T334 site” value [1] was “did not inhibit”, the “effect on phosphorylation of Hsp27 (Ser82)” value [1] was “significantly inhibited” and the “effect on LPS-induced TNF-α, IL-6 and IL-1 mRNA expression” value [2] was “significantly inhibited”.
